Experimental findings from patent US20150344540A1, “NOVEL GLP-1 RECEPTOR AGONISTS WITH CHOLESTEROL EFFLUX ACTIVITY” (NOVO NORDISK A/S, priority 2012, published 2015) are described below.

The subject of one data set is db/db mice. The data set can be described thus: Antidiabetic effect (acute blood glucose) in db/db mice. It counts as in vivo, male db/db (C57B1/KS db/db) mice. How it is done:
The mice, 48 male db/db (C57B1/KS db/db), were purchased from Taconic, arriving at Novo Nordisk A/S Animal Unit at 6 weeks of age. The mice were housed according to standard rules in the animal unit and given free access to standard chow and tap water. The animals were kept at a room temperature of 22-24° C. and housed in groups of 5 mice, with free access to food and water, according to Animal Unit's SOP (Housing of experimental animals at Novo Nordisk A/S).
Test compound was administered as a single dose s.c.
Blood glucose was measured in a 5 μl full blood sample taken from the tip of the tail by puncturing the capillary bed with a lancet, using a 5 μl heparinised capillary tube to sample the blood. The capillary tube was then shaken into 2500 μl glucose/lactate System Solution and measured in a Biosen S_Line, autoanalyser (EKF Diagnostics GmbH, Magdeburg, Germany) according to the manufacturer's instructions. The samples were kept at room temperature until analysis. If analysis was postponed, samples were kept at 4° C. for a maximum of 24 h. The blood samples were taken at the following time points: 0, 30, 60, 120, 180 and 240 minutes and again at 24 h. After the 24 h sample, the blood was sampled from cheek or eye blood for drug exposure measurement in EDTA coated tubes. 50 μl plasma was pipetted from each animal for analysis in an in house immunoassay developed for GLP-1 analogues.

A further data set is described as follows: pH solubility assay. Details: unit not given here. Type of data set: physicochemical. The following applies: two days at 25° C. How it is done: One approach is to make a pH gradient from a buffer mix consisting of two buffers (e.g. citrate 100 mM/phosphate 200 mM), spike with a concentrated sample stock, and then leave the samples for 2 days at ambient temperature. […] Samples were incubated for two days at 25° C., centrifuged at 4700 g, and the concentration measured in the supernatant on a Nanodrop UV spectrophotometer (Thermo Fischer Scientific, Waltham, Mass.) using a theoretical extinction coefficient of 6,990 cm^−1M^−1.

SMILES strings stand for the structures.

Take `CC[C@H](C)[C@H](NC(=O)[C@H](Cc1ccccc1)NC(=O)[C@H](CCC(=O)O)NC(=O)[C@H](CCCCN)NC(=O)[C@@H](NC(=O)[C@H](C)NC(=O)[C@H](CCC(=O)O)NC(=O)CNC(=O)[C@H](CCC(=O)O)NC(=O)[C@H](CC(C)C)NC(=O)[C@H](Cc1ccc(O)cc1)NC(=O)[C@H](CO)NC(=O)[C@H](CO)NC(=O)[C@@H](NC(=O)[C@H](CC(=O)O)NC(=O)[C@H](CO)NC(=O)[C@@H](NC(=O)[C@H](Cc1ccccc1)NC(=O)[C@@H](NC(=O)CNC(=O)[C@H](CCC(=O)O)NC(=O)C(C)(C)NC(=O)[C@@H](N)Cc1c[nH]cn1)[C@@H](C)O)[C@@H](C)O)C(C)C)C(C)C)C(=O)N[C@@H](C)C(=O)N[C@@H](Cc1c[nH]c2ccccc12)C(=O)N[C@@H](CC(C)C)C(=O)N[C@H](C(=O)N[C@@H](CCC(=O)O)C(=O)N[C@@H](CCCCN)C(=O)NC(C)(C)C(=O)N[C@@H](CCCCN)C(=O)N[C@@H](CCC(=O)O)C(=O)N[C@@H](Cc1ccccc1)C(=O)N[C@@H](CC(C)C)C(N)=O)C(C)C` [Compound 1, [Aib8,Glu23,Val25,Glu34,Lys35,Aib36,Lys37]-GLP-1-(7-37)-peptidyl-Glu-Phe-Leu amide]: the duration of action entry with db/db mice (single s.c. dose) was “at least 24 h”. Moreover, in the data set with db/db mice (single s.c. dose 10, 30, 100 and 300 nmol/kg), the “acute effect on blood glucose” value is recorded as “lowered blood glucose in a dose-dependent manner”. Also, in the data set on db/db mice (single s.c. dose, FIG. 1B), the “Plasma concentration 24 hours after dosing” value is “still very high”. Moreover, the Conc. supernatant in “pH solubility assay” (pH meas. 4.15, citrate 100 mM/phosphate 200 mM) is reported as 0.009; in the data set “pH solubility assay” (pH meas. 4.50, citrate 100 mM/phosphate 200 mM) it was 0.002; in “pH solubility assay” (pH meas. 4.95, citrate 100 mM/phosphate 200 mM), 0.005; in “pH solubility assay” (pH meas. 5.29, citrate 100 mM/phosphate 200 mM), 0.021; in the data set “pH solubility assay” (pH meas. 5.75, citrate 100 mM/phosphate 200 mM) it was 0.270; in the data set “pH solubility assay” (pH meas. 6.10, citrate 100 mM/phosphate 200 mM), 0.228. In addition, the Conc. supernatant worked out at 0.234 in “pH solubility assay” (pH meas. 6.42, citrate 100 mM/phosphate 200 mM); 0.249 in the data set “pH solubility assay” (pH meas. 6.76, citrate 100 mM/phosphate 200 mM); 0.233 in the data set “pH solubility assay” (pH meas. 7.21, citrate 100 mM/phosphate 200 mM); 0.244 in the data set “pH solubility assay” (pH meas. 7.65, citrate 100 mM/phosphate 200 mM); 0.254 in “pH solubility assay” (pH meas. 8.29, citrate 100 mM/phosphate 200 mM); 0.247 in “pH solubility assay” (pH meas. 8.65, phosphate 200 mM only).
